In PubChem BioAssay (NCI):
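Method: 48-hour compound exposure of cells in 96-well plates, five concentrations, linear interpolation of endpoints. Here, GI50 denotes the concentration required for 50% inhibition of growth. TGI denotes the concentration required for complete inhibition of growth.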

Columns and labels:
Test in all cases: DTP human tumour cell line panel, 48 h
HOP-62 NSCLC = test system: HOP-62 NSCLC
TK-10 renal = test system: TK-10 renal
NCI-H23 lung = test system: NCI-H23 lung
MALME-3M melanoma = test system: MALME-3M melanoma
SF-295 CNS = test system: SF-295 CNS
BT-549 breast = test system: BT-549 breast
A498 renal = test system: A498 renal
HCT-116 colon = test system: HCT-116 colon
DMS 114 small cell lung = test system: DMS 114 small cell lung
SNB-78 CNS = test system: SNB-78 CNS
XF 498 CNS = test system: XF 498 CNS
DLD-1 colon = test system: DLD-1 colon
HOP-18 NSCLC = test system: HOP-18 NSCLC

SMILES | TGI (HOP-62 NSCLC) [µM] | TGI (TK-10 renal) [µM] | TGI (NCI-H23 lung) [µM] | TGI (MALME-3M melanoma) [µM] | TGI (SF-295 CNS) [µM] | TGI (BT-549 breast) [µM] | TGI (A498 renal) [µM] | TGI (HCT-116 colon) [µM] | GI50 (TK-10 renal) [µM] | GI50 (NCI-H23 lung) [µM] | GI50 (MALME-3M melanoma) [µM] | GI50 (SF-295 CNS) [µM] | GI50 (BT-549 breast) [µM] | GI50 (A498 renal) [µM] | GI50 (HCT-116 colon) [µM] | TGI (DMS 114 small cell lung) [µM] | TGI (SNB-78 CNS) [µM] | TGI (XF 498 CNS) [µM] | TGI (DLD-1 colon) [µM] | TGI (HOP-18 NSCLC) [µM]
Cc1nc2ncn3c(c-2c1Cc1ccccc1)NC=C(O)N3 | > 100 | > 100 | > 100 | > 100 | > 100 | > 100 | > 100 | > 100 | – | – | – | – | – | – | – | – | – | – | – | –
COC(=O)C[C@H](COCc1ccccc1)NC(=O)C[C@H](COCc1ccccc1)NC(=O)OC(C)(C)C | 49.2 | – | > 100 | > 100 | > 100 | 51.9 | 61.9 | 81.2 | – | – | – | – | – | – | – | – | – | – | – | –
CCCCCOC(=O)c1cc2cc(CCl)ccc2oc1=O | 32.9 | 5.3 | 17.2 | 8.33 | 60.4 | 40.6 | 5.39 | 27.4 | – | – | – | – | – | – | – | – | – | – | – | –
Cc1cc(=O)[nH]c(/N=C(\N)Nc2ccc(Cl)cc2)n1 | > 100 | > 100 | > 100 | > 100 | > 100 | > 100 | > 100 | > 100 | – | – | – | – | – | – | – | – | – | – | – | –
Nc1ccc(-c2nc3cc(F)ccc3s2)cc1CO | 52.1 | – | 42.1 | > 100 | 34.8 | 51.2 | 0.0141 | > 100 | – | – | – | – | – | – | – | – | – | – | – | –
O=C1/C(=C\c2ccc(F)cc2)CCOc2c1ccc1ccccc21 | 63.8 | 60.7 | 39.4 | 37.7 | 70.3 | 77.3 | > 62.1 | 10.7 | – | – | – | – | – | – | – | – | – | – | – | –
COc1ccc(C(=O)N(C(=O)N2CCN(c3ccccc3)CC2)S(=O)(=O)c2ccccc2)cc1 | > 100 | > 100 | 73.2 | 93.4 | > 100 | > 100 | > 100 | 42.1 | – | – | – | – | – | – | – | – | – | – | – | –
COC(CN(C=O)[C@@H](c1ccc(Cl)cc1)c1cc2ccccc2o1)OC | 43.5 | 33.4 | 39.2 | 11.5 | 31 | – | 33.1 | 32.9 | – | – | – | – | – | – | – | – | – | – | – | –
Nc1ccc(Oc2ccc(C34CC5CC(C3)CC(c3ccc(Oc6ccc(N)cc6)cc3)(C5)C4)cc2)cc1 | > 56.7 | > 39.4 | 37.4 | 28.7 | > 56.4 | 33.6 | 27.3 | > 44.8 | – | – | – | – | – | – | – | – | – | – | – | –
O=[N+]([O-])c1ccc2c(c1)nc(Cc1ccc(Cl)cc1)n2C[C@@H]1CCCN2CCCCC12 (stereo partly drawn) | 48.9 | 39.9 | 34.3 | 26.2 | 29.3 | 27.1 | 21.7 | 23.3 | – | – | – | – | – | – | – | – | – | – | – | –
NC(=S)N1N=C(c2ccccc2O)CC1c1ccccc1 (stereo not drawn) | 25.5 | 78.3 | 61.3 | 42.3 | 29.2 | 75 | 30.1 | 28.1 | – | – | – | – | – | – | – | – | – | – | – | –
CCCN1C(=O)CSC1=Nc1ccc2cc3ccc(N=C4SCC(=O)N4CCC)cc3nc2c1 | – | 90.6 | > 100 | 81.7 | > 100 | > 100 | > 100 | 34.8 | 32.1 | 71.1 | 17.5 | 30 | 46.5 | > 100 | 14.3 | – | – | – | – | –
COc1cc([C@@H]2c3cc4c(cc3[C@@H](c3c(O)cc(O)c5c3O[C@H](c3ccc(O)c(O)c3)[C@H](OC(=O)c3cc(O)c(O)c(O)c3)C5)[C@H]3COC(=O)[C@H]23)OCO4)cc(OC)c1OC | > 100 | > 100 | > 100 | – | > 41.8 | > 100 | > 100 | > 100 | – | – | – | – | – | – | – | – | – | – | – | –
Cc1cnoc1NS(=O)(=O)c1ccc(Nc2nnc(/C=C/c3c(O)ccc4ccccc34)c(=O)n2N)cc1 | > 100 | – | 32 | 65.5 | > 100 | 53.9 | – | 55.9 | – | – | – | – | – | – | – | – | – | – | – | –
COC1CC(CC2CCC(C)C(C(C)C(=O)O)O2)OC2(OC(C)(C3CCC(C)(C4OC(C5OC(O)(CO)C(C)CC5C)CC4C)O3)CC2C)C1C (stereo not drawn) | 19.6 | 36.8 | 8.76 | 0.798 | 11.6 | 27.7 | 3.39 | 15.6 | – | – | – | – | – | – | – | 1.03 | 68.3 | 1.01 | 14.1 | 11.5
O=C1CC2(CCC(O)(c3cccs3)C(C(=O)c3cccs3)C2)C(=O)c2ccccc2N1 (stereo not drawn) | > 100 | > 100 | > 100 | > 100 | > 100 | > 100 | > 100 | > 100 | – | – | – | – | – | – | – | – | – | – | – | –
